# According to PubChem BioAssay (NCI):
# Where “and” joins values, the source holds several entries; their conditions need not be identical. Equal entries are not always repeated.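 Grown in 96-well plates, cells were treated for 48 hours with each compound at five concentrations. Insufficient inhibition: endpoint recorded as highest concentration tested. Here, GI50 denotes the concentration required for 50% inhibition of growth. TGI: total growth inhibition.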
# How the values were obtained:
# Assay in all cases: inhibition of tumour cell growth, NCI panel, 48 h
# NCI-H460 lung = system: NCI-H460 lung
# HL-60(TB) leukemia = system: HL-60(TB) leukemia
# MCF7 breast = system: MCF7 breast
# SK-MEL-2 melanoma = system: SK-MEL-2 melanoma
# LOX IMVI melanoma = system: LOX IMVI melanoma
# OVCAR-3 ovarian = system: OVCAR-3 ovarian
# CAKI-1 renal = system: CAKI-1 renal
# ACHN renal = system: ACHN renal
# SW-620 colon = system: SW-620 colon
# 786-0 renal = system: 786-0 renal
Compound,TGI (NCI-H460 lung) [µM],TGI (HL-60(TB) leukemia) [µM],TGI (MCF7 breast) [µM],TGI (SK-MEL-2 melanoma),TGI (LOX IMVI melanoma) [µM],TGI (OVCAR-3 ovarian),TGI (CAKI-1 renal),TGI (ACHN renal),TGI (SW-620 colon) [µM],TGI (786-0 renal) [µM],GI50 (NCI-H460 lung) [µM],GI50 (HL-60(TB) leukemia) [µM],GI50 (MCF7 breast) [µM],GI50 (SK-MEL-2 melanoma) [µM],GI50 (LOX IMVI melanoma) [µM],GI50 (OVCAR-3 ovarian) [µM],GI50 (CAKI-1 renal) [µM],GI50 (ACHN renal) [µM],GI50 (SW-620 colon) [µM],GI50 (786-0 renal) [µM]
CCCCCCCC(=O)OC[n+]1cccc(-c2c(COC(=O)NC(C)C)c(COC(=O)NC(C)C)c3n2CCC3)c1,> 100,> 82.1,> 100,> 100 µM,> 100,> 100 µM,> 87.5 µM,> 100 µM,> 100,> 100,–,–,–,–,–,–,–,–,–,–
N#CC(C#N)=C/C=C/c1ccccc1[N+](=O)[O-],> 10,> 10,> 10,> 10 µM,7.09,> 10 µM,> 10 µM,> 10 µM,> 10,> 10,–,–,–,–,–,–,–,–,–,–
c1ccc(-c2nc3ccccc3[nH]2)c(OCCCCCOc2ccccc2-c2nc3ccccc3[nH]2)c1,25.6,7.76,7.51,24.6 µM,29.8,24.7 µM,29.9 µM,26.9 µM,12.9,35.3,3.75,2.57,2.3,8.96,12.9,12,12.5,13.1,3.18,15.9
COc1ccc2cc1Oc1ccc(cc1)CC1c3c(cc(OC)c4c3Oc3cc5c(cc3O4)CCNC5C2)CCN1C (stereo not given),3.25,3.67,3.38,3.49 µM and 3.85 µM,3.22,7.41 µM and 3.07 µM,5.77 µM and 3.62 µM,4.01 µM and 2.81 µM,–,3.72,1.62,–,–,2.19,–,1.62,1.67,1.49,–,2.17
COc1ccc(C2=NOC3=c4ccccc4=CSC3=C2c2ccccc2)cc1,89,> 100,62.9,> 100 µM,> 100,79.5 µM,> 100 µM,> 100 µM,> 100,> 100,21.5,39.7,24.2,75.3,44.8,25,64.7,73.7,28.9,27.5
COc1ccccc1CNCCCN1C(=O)c2ccc3c4c(ccc(c24)C1=O)C(=O)N(CCCNCCCCN)C3=O,1,0.527,0.555,0.49 µM,0.557,0.81 µM,> 42.4 µM,11.1 µM,0.858,3.67,0.313,0.229,0.202,0.233,0.202,0.304,3.31,0.576,0.161,0.616
COc1ccc(-c2nc3sccn3c2/C=C/C(=O)c2cc(OC)c(OC)c(OC)c2)cc1,11.1,82.3,> 100,> 26.3 µM,6.59,7.37 µM,> 100 µM,> 60.9 µM,> 100,> 100,2.54,3.33,1.85,3.58,2.11,2.34,2.02,3.45,3.01,3.7
OCCN1CCCN(CCCN2c3ccccc3Sc3ccc(C(F)(F)F)cc32)CC1,3.77,3.74,3.14,4.08 µM,3.21,13.9 µM,6.26 µM,13.4 µM,4.15,5.25,1.95,1.91,1.6,2.07,1.73,3.84,2.3,3.56,1.86,2.21
COc1ccc(N=C2C(=O)Nc3ccc(Br)cc32)cc1,78.4,42.7,35.2,–,27.4,62.4 µM,60.6 µM,38.6 µM,63.8,43.6,–,–,–,–,–,–,–,–,–,–
c1ccc2[nH]c(-c3cscn3)nc2c1,> 100,> 100,> 100,> 100 µM,> 100,> 100 µM,> 100 µM and 37.2 µM,> 100 µM,> 100,> 100,–,–,–,–,–,–,–,–,–,–
CC(=O)OCCc1cc2ccccc2oc1=O,> 100,> 100,> 100,> 100 µM,> 100,> 100 µM,> 100 µM,> 100 µM,> 100,> 100,–,–,–,–,–,–,–,–,–,–
COc1ccc2c(c1)CCC1C2CCC2(C)C(NC(=O)CCCCC3CCSS3)CCC12 (stereo not given),93.3,> 100,> 100,> 100 µM,> 100,> 100 µM,> 100 µM,> 100 µM,> 100,> 100,4.84,3.75,39.7,53.5,32.5,12.6,23.9,27.6,> 100,> 100
C=C(c1ccc(C(=O)NCCCn2ccnc2)cc1)c1cc2c(cc1C)C(C)(C)CCC2(C)C,10.5,3.93,13.8,7.33 µM,4.48,6.09 µM,> 51.2 µM,14.1 µM,–,5.45,0.87,1.06,1.25,2.71,0.395,1.69,1.47,2.16,–,1.94
Nc1nc2c([nH]1)c1[nH]c3ccccc3c1c1[nH]c3ccccc3c21,–,38.1,21.1,32.4 µM,32.5,25.7 µM,29.5 µM,24.4 µM,12.4,22.6,–,18.4,4.47,16.2,16,12.6,16,12,3.31,9.44
Fc1nc(Sc2ncnc3nc[nH]c23)nc(-c2c3ccccc3c3sc4ccccc4n23)n1,> 100,> 100,> 100,> 100 µM,> 100,> 100 µM,> 100 µM,> 100 µM,> 100,> 100,–,–,–,–,–,–,–,–,–,–
